Test results: patent US12116371B2, “Substituted pyridines as irreversible inhibitors of menin-MLL interaction” (BIOMEA FUSION, INC., priority 2018, dated 2024)
Like-named read-outs stand apart in the source and are kept apart here.

Legend:
[1] = test system: SK-LU-1 cells; experiment: Proliferation assay, cells in adhesion; type: cell-based; conditions: for IC50: Homo sapiens
[2] = test system: MV4-11 cells; experiment: Long term proliferation assay, Cell Titer-Glo read-out; type: cell-based, human; conditions: for IC50: Homo sapiens
Protocol: (§1) Compounds of invention are tested in the 5 suspension lines by 14-day long-term proliferation assay.
(§2) The compound is tested in 10-pt dose titration (client will determine the starting concentration and the dilution scheme) and the final DMSO concentration is kept at 0.2%.
(§3) On Day 0, in a flat bottom 96-well plate, add 100 μL of cells per well at the densities optimized. Prepare compounds in DMSO at 500× final concentration. Dilute the compounds with DMSO at the dilution. Dilute the compounds in media at 3× final concentration. Add 50 μL of compound or DMSO at 3× final concentration to each well. Final volume in each well is 150 μL, and final concentration of DMSO is 0.2%. Also include 3 untreated control wells, by adding 50 μL of media alone. Incubate plates for 96 hours.
(§4) To do this take the total viable cell count calculated using step: • 1. Take the average of the replicates for each dose in order to be used in splitting the cells. • 2. Use a 96 well V-bottom plate to spin down the cells to remove old media and compound to split the cells. • 3. Based on the split ratio place the proper amount of media and cells into the V-bottom plate, and spin the plate at 1100 rpm for 5 minutes. • 4. Following the spin remove the media, careful not to disturb the cell pellet. Re-suspend pellet in 100 μL fresh media, and add to a new 96-well flat bottom plate. • 5. Add fresh compound, in the same manner as Step 3). • 6. Incubate plates for 72 hours. Repeat steps 5)-10) on Day 7. • 7. Incubate plates for 96 hours. Repeat Step 5)-10) on Day 11. • 8. Incubate 72 hours and repeat step 5) to take a final count. • 9. Data Analysis
(§5) To calculate growth for days 4, 7, 11, and 14: • 1. Calculate the split factor for day 4 to 7, day 7 to 11, and day 11-14. The split factor is the viable cells/mL on Day X (either 4, 7 or 11) divided by the density the cells are being split back to. • 2. For growth of cells from day 4 to 7, multiply the day 7 viable cells/mL density by the split factor from day 4. • 3. For growth of cells from day 7 to 11, multiply the day 11 viable cells/mL density by the days 4, and 7 split factors. • 4. For growth of cells from Day 11 to 14, multiply the Day 14 viable cells/mL density by the days 4, 7, and 11 split factors. • 5. Plot growth on semi-log chart (viable cells/mL on Y axis, in log, and days on X axis). • 6. The growth inhibition was calculated with the formula ((untreated cell numbers-treated cell numbers)/untreated cell)). • 7. Calculate the IC50 for each compound in each line using XLFit (Sigmoidal Dose-Response Model, y=(Bottom+((Top-Bottom)/(1+((IC50/×)^Hill))))).

[3] = test system: MIAPaCa-2 cells; experiment: Proliferation assay, cells in adhesion; type: cell-based; conditions: for IC50: Homo sapiens
[4] = test system: OCI-AML-3 cells; experiment: Long term proliferation assay, Cell Titer-Glo read-out; type: cell-based; conditions: for IC50: Homo sapiens; for % max: OCI-AML3
Protocol: as §1, §2, §3, §4, §5

[5] = test system: KG-1 cells; experiment: as above; type: cell-based; conditions: for IC50: Homo sapiens
Protocol: as §1, §2, §3, §4, §5

[6] = test system: SK-LU-1/AMG510 cells; experiment: Proliferation assay, cells in adhesion; type: cell-based; conditions: for IC50: Homo sapiens

C=CC(=O)NC1CCCN(Cc2ccnc(C(=O)Nc3ccc(-c4cc5c(N6CCOCC6)ncnc5[nH]4)cc3)c2)C1 (stereo not shown) [Compound 10]
IC50 ([1]; SK-LU-1, SK-LU-1, T4, read-out: IC50): 680 nM | IC50 ([1]; SK-LU-1, SK-LU-1, T7, read-out: IC50): 590 nM | IC50 ([1]; SK-LU-1, SK-LU-1, T7, read-out: pIC50 (converted)): 589 nM | IC50 ([1]; SK-LU-1, SK-LU-1, T11, read-out: IC50): 370 nM | IC50 ([1]; SK-LU-1, SK-LU-1, T11, read-out: pIC50 (converted)): 372 nM | % max ([1]; SK-LU-1, T4): 82% | % max ([1]; SK-LU-1, T7): 95% | % max ([1]; SK-LU-1, T11): 96% | IC50 ([2]; MV4-11, 96 h, MV4-11, Day 4, Cell Titer-Glo, read-out: Day 4 IC50): 150 nM | IC50 ([2]; MV4-11, 168 h, MV4-11, Day 7, Cell Titer-Glo, read-out: Day 7 IC50): 70 nM | IC50 ([2]; MV4-11, 264 h, MV4-11, Day 11, Cell Titer-Glo, read-out: Day 11 IC50): 60 nM | IC50 ([2]; MV4-11, 336 h, MV4-11, Day 14, Cell Titer-Glo, read-out: Day 14 IC50): 50 nM | IC50 ([2]; MV4-11, MV4-11, T4, CellTiter-Glo, read-out: IC50): 150 nM | IC50 ([2]; MV4-11, MV4-11, T4, CellTiter-Glo, read-out: pIC50 (converted)): 151 nM | IC50 ([2]; MV4-11, MV4-11, T11, CellTiter-Glo, read-out: IC50): 60 nM | IC50 ([2]; MV4-11, MV4-11, T11, CellTiter-Glo, read-out: pIC50 (converted)): 56.2 nM | % max ([2]; MV4-11, T4, CellTiter-Glo): 99% | % max ([2]; MV4-11, T11, CellTiter-Glo): 99% | IC50 ([3]; MIA PaCa-2, MIAPaCa-2, T4, read-out: IC50): 270 nM | IC50 ([3]; MIA PaCa-2, MIAPaCa-2, T4, read-out: pIC50 (converted)): 269 nM | IC50 ([3]; MIA PaCa-2, MIAPaCa-2, T7, read-out: IC50): 230 nM | IC50 ([3]; MIA PaCa-2, MIAPaCa-2, T7, read-out: pIC50 (converted)): 229 nM | IC50 ([3]; MIA PaCa-2, MIAPaCa-2, T11, read-out: IC50): 220 nM | IC50 ([3]; MIA PaCa-2, MIAPaCa-2, T11, read-out: pIC50 (converted)): 219 nM | % max ([3]; MIAPaCa-2, T4): 96% | % max ([3]; MIAPaCa-2, T7): 98% | % max ([3]; MIAPaCa-2, T11): 99% | IC50 ([4]; OCI-AML-3, 96 h, OCI-AML-3, Day 4, Cell Titer-Glo, read-out: Day 4 IC50): 190 nM | IC50 ([4]; OCI-AML-3, 168 h, OCI-AML-3, Day 7, Cell Titer-Glo, read-out: Day 7 IC50): 140 nM | IC50 ([4]; OCI-AML-3, 264 h, OCI-AML-3, Day 11, Cell Titer-Glo, read-out: Day 11 IC50): 100 nM | IC50 ([4]; OCI-AML-3, 336 h, OCI-AML-3, Day 14, Cell Titer-Glo, read-out: Day 14 IC50): 120 nM | IC50 ([4]; OCI-AML-3, OCI-AML3, T4, CellTiter-Glo, read-out: IC50): 190 nM | IC50 ([4]; OCI-AML-3, OCI-AML3, T4, CellTiter-Glo, read-out: pIC50 (converted)): 191 nM | IC50 ([4]; OCI-AML-3, OCI-AML3, T11, CellTiter-Glo, read-out: IC50): 100 nM | IC50 ([4]; OCI-AML-3, OCI-AML3, T11, CellTiter-Glo, read-out: pIC50 (converted)): 100 nM | % max ([4]; T4, CellTiter-Glo): 99% | % max ([4]; T11, CellTiter-Glo): 99% | IC50 ([5]; 96 h, Day 4, Cell Titer-Glo, read-out: Day 4 IC50): 470 nM | IC50 ([5]; 168 h, Day 7, Cell Titer-Glo, read-out: Day 7 IC50): 330 nM | IC50 ([5]; 264 h, Day 11, Cell Titer-Glo, read-out: Day 11 IC50): 270 nM | IC50 ([5]; 336 h, Day 14, Cell Titer-Glo, read-out: Day 14 IC50): 240 nM | IC50 ([5]; T4, CellTiter-Glo, read-out: IC50): 470 nM | IC50 ([5]; T4, CellTiter-Glo, read-out: pIC50 (converted)): 468 nM | IC50 ([5]; T11, CellTiter-Glo, read-out: IC50): 270 nM | IC50 ([5]; T11, CellTiter-Glo, read-out: pIC50 (converted)): 269 nM | % max ([5]; T4, CellTiter-Glo): 99% | % max ([5]; T11, CellTiter-Glo): 99% | IC50 ([6]; SK-LU-1, SK-LU-1/AMG510, T4, read-out: IC50): 720 nM | IC50 ([6]; SK-LU-1, SK-LU-1/AMG510, T7, read-out: IC50): 450 nM | IC50 ([6]; SK-LU-1, SK-LU-1/AMG510, T7, read-out: pIC50 (converted)): 447 nM | IC50 ([6]; SK-LU-1/AMG510, T11, read-out: IC50): 390 nM | IC50 ([6]; SK-LU-1/AMG510, T11, read-out: pIC50 (converted)): 389 nM | % max ([6]; SK-LU-1/AMG510, T4): 83% | % max ([6]; SK-LU-1/AMG510, T7): 95% | % max ([6]; SK-LU-1/AMG510, T11): 98%
